Reference: the NIST ThermoML archive (doi:10.1021/je400184t)

Assay: excess molar enthalpy (molar enthalpy of mixing); xn = mol fraction of the nth substance listed
Conditions: 298.15 K, 101 kPa, Liquid, Calvet calorimetry

CN(CCO)CCO [N-methyldiethanolamine] + c1ccncc1
Conditions	excess molar enthalpy [kcal/mol]
x2 = 0.5606	-0.0203
x2 = 0.5629	-0.0203
x2 = 0.5652	-0.0201
x2 = 0.5675	-0.0201
x2 = 0.5698	-0.0198
x2 = 0.5721	-0.0198
x2 = 0.5744	-0.0191
x2 = 0.5767	-0.0196
x2 = 0.579	-0.0194
x2 = 0.5813	-0.0194
x2 = 0.5836	-0.0191
x2 = 0.5859	-0.0191
x2 = 0.5882	-0.0189
x2 = 0.5905	-0.0189
x2 = 0.5928	-0.0186
x2 = 0.595	-0.0186
x2 = 0.5974	-0.0184
x2 = 0.5996	-0.0182
x2 = 0.6019	-0.0182
x2 = 0.6042	-0.0179
x2 = 0.6065	-0.0179
x2 = 0.6088	-0.0177
x2 = 0.6111	-0.0177
x2 = 0.6134	-0.0174
x2 = 0.6157	-0.0174
x2 = 0.618	-0.0172
x2 = 0.6203	-0.0172
x2 = 0.6226	-0.017
x2 = 0.6249	-0.0167
x2 = 0.6272	-0.0167
x2 = 0.6295	-0.0165
x2 = 0.6318	-0.0165
x2 = 0.6341	-0.0163
x2 = 0.6363	-0.0163
x2 = 0.6386	-0.016
x2 = 0.6409	-0.016
x2 = 0.6432	-0.0158
x2 = 0.6455	-0.0155
x2 = 0.6478	-0.0155
x2 = 0.6501	-0.0153
x2 = 0.6524	-0.0153
x2 = 0.6547	-0.0151
x2 = 0.657	-0.0148
x2 = 0.6593	-0.0148
x2 = 0.6616	-0.0146
x2 = 0.6639	-0.0146
x2 = 0.6662	-0.0143
x2 = 0.6685	-0.0143
x2 = 0.6707	-0.0141
x2 = 0.6731	-0.0139
x2 = 0.6753	-0.0139
x2 = 0.6776	-0.0136
x2 = 0.6799	-0.0136
x2 = 0.6822	-0.0134
x2 = 0.6845	-0.0131
x2 = 0.6868	-0.0131
x2 = 0.6891	-0.0129
x2 = 0.6914	-0.0127
x2 = 0.6937	-0.0127
x2 = 0.696	-0.0124
x2 = 0.6983	-0.0124
x2 = 0.7006	-0.0122
x2 = 0.7029	-0.012
x2 = 0.7052	-0.012
x2 = 0.7075	-0.0117
x2 = 0.7097	-0.0115
x2 = 0.712	-0.0115
x2 = 0.7143	-0.0112
x2 = 0.7166	-0.0112
x2 = 0.7189	-0.011
x2 = 0.7212	-0.0108
x2 = 0.7235	-0.0108
x2 = 0.7258	-0.0105
x2 = 0.7281	-0.0103
x2 = 0.7304	-0.0103
x2 = 0.7327	-0.01
x2 = 0.735	-0.0098
x2 = 0.7373	-0.0098
x2 = 0.7396	-0.00956
x2 = 0.7419	-0.00956
x2 = 0.7442	-0.00932
x2 = 0.7464	-0.00908
x2 = 0.7488	-0.00908
x2 = 0.751	-0.00884
x2 = 0.7533	-0.0086
x2 = 0.7556	-0.0086
x2 = 0.7579	-0.00837
x2 = 0.7602	-0.00813
x2 = 0.7625	-0.00813
x2 = 0.7648	-0.00789
x2 = 0.7671	-0.00765
x2 = 0.7694	-0.00765
x2 = 0.7717	-0.00741
x2 = 0.774	-0.00717
x2 = 0.7763	-0.00717
x2 = 0.7786	-0.00693
x2 = 0.7809	-0.00669
x2 = 0.7827	-0.00669
x2 = 0.7869	-0.00645
x2 = 0.7911	-0.00598
x2 = 0.7953	-0.00574
x2 = 0.7996	-0.0055
x2 = 0.8039	-0.00526
x2 = 0.8083	-0.00502
x2 = 0.8127	-0.00454
x2 = 0.8172	-0.0043
x2 = 0.8217	-0.00406
x2 = 0.8263	-0.00359
x2 = 0.8309	-0.00335
x2 = 0.8356	-0.00311
x2 = 0.8404	-0.00287
x2 = 0.8451	-0.00239
x2 = 0.85	-0.00215
x2 = 0.8549	-0.00191
x2 = 0.8598	-0.00167
x2 = 0.8648	-0.0012
x2 = 0.8699	-0.000956
x2 = 0.875	-0.000717
x2 = 0.8802	-0.000478
x2 = 0.8855	-0.000239
x2 = 0.8908	0
x2 = 0.8962	0.000239
x2 = 0.9016	0.000478
x2 = 0.9071	0.000717
x2 = 0.9127	0.000956
x2 = 0.9183	0.0012
x2 = 0.9241	0.00143
x2 = 0.9298	0.00143
x2 = 0.9357	0.00167
x2 = 0.9416	0.00167
x2 = 0.9477	0.00167
x2 = 0.9538	0.00191
x2 = 0.9599	0.00167
x2 = 0.9662	0.00167
x2 = 0.9725	0.00167
x2 = 0.9789	0.00143
x2 = 0.9854	0.0012
x2 = 0.992	0.000717
x2 = 0.9987	0.000239
